The NIST ThermoML archive (doi:10.1016/j.fluid.2017.06.019)

Conditions: Coaxial cylinder method

CCC [propane]
Conditions | thermal conductivity [W/m/K]
367.32 K, 4260 kPa, Liquid | 0.0642
367.32 K, 4270 kPa, Liquid | 0.06416
367.32 K, 4280 kPa, Liquid | 0.06413
367.32 K, 4290 kPa, Liquid | 0.06409
367.32 K, 4300 kPa, Liquid | 0.06407
367.32 K, 4350 kPa, Liquid | 0.06399
367.32 K, 4400 kPa, Liquid | 0.06399
367.32 K, 4450 kPa, Liquid | 0.06405
367.32 K, 4500 kPa, Liquid | 0.06413
367.32 K, 4550 kPa, Liquid | 0.06426
367.32 K, 4600 kPa, Liquid | 0.0644
367.32 K, 4650 kPa, Liquid | 0.06452
367.32 K, 4700 kPa, Liquid | 0.06466
367.32 K, 4770 kPa, Liquid | 0.06483
367.32 K, 4800 kPa, Liquid | 0.06498
367.32 K, 4850 kPa, Liquid | 0.06516
367.32 K, 4900 kPa, Liquid | 0.06532
367.32 K, 4950 kPa, Liquid | 0.06554
367.32 K, 4976 kPa, Liquid | 0.06564
367.32 K, 5077 kPa, Liquid | 0.06597
368.46 K, 2968 kPa, Gas | 0.03214
368.46 K, 2972 kPa, Gas | 0.03214
368.46 K, 2978 kPa, Gas | 0.03213
368.46 K, 3000 kPa, Gas | 0.03223
368.46 K, 3030 kPa, Gas | 0.03238
368.46 K, 3100 kPa, Gas | 0.03275
368.46 K, 3150 kPa, Gas | 0.03302
368.46 K, 3200 kPa, Gas | 0.03331
368.46 K, 3250 kPa, Gas | 0.0336
368.46 K, 3300 kPa, Gas | 0.03395
368.46 K, 3350 kPa, Gas | 0.03428
368.46 K, 3400 kPa, Gas | 0.03471
368.46 K, 3500 kPa, Gas | 0.03552
368.46 K, 3575 kPa, Gas | 0.03626
368.46 K, 3650 kPa, Gas | 0.03704
368.46 K, 3700 kPa, Gas | 0.03759
368.46 K, 3720 kPa, Gas | 0.03785
368.46 K, 3730 kPa, Gas | 0.03799
368.46 K, 3740 kPa, Gas | 0.0381
368.46 K, 3750 kPa, Gas | 0.03825
368.46 K, 3755 kPa, Gas | 0.03832
368.46 K, 3765 kPa, Gas | 0.03844
368.46 K, 3775 kPa, Gas | 0.03858
368.46 K, 3785 kPa, Gas | 0.03873
368.46 K, 3790 kPa, Gas | 0.03878
368.46 K, 3800 kPa, Gas | 0.03892
368.46 K, 3850 kPa, Gas | 0.03974
368.46 K, 3900 kPa, Gas | 0.04073
368.46 K, 3950 kPa, Gas | 0.04194
368.46 K, 4000 kPa, Gas | 0.04351
368.46 K, 4038 kPa, Gas | 0.04518
368.46 K, 4060 kPa, Gas | 0.04654
368.46 K, 4080 kPa, Gas | 0.04809
368.46 K, 4096 kPa, Gas | 0.04969
368.46 K, 4099 kPa, Gas | 0.05013
368.46 K, 4102 kPa, Gas | 0.0505
368.46 K, 4104 kPa, Gas | 0.05078
368.46 K, 4106 kPa, Gas | 0.05104
368.46 K, 4112 kPa, Gas | 0.05196
368.46 K, 4114 kPa, Gas | 0.05236
368.46 K, 4115 kPa, Gas | 0.0525
368.46 K, 4116 kPa, Gas | 0.0527
368.46 K, 4117 kPa, Gas | 0.05291
368.46 K, 4118 kPa, Gas | 0.05307
368.46 K, 4119 kPa, Gas | 0.05335
368.46 K, 4120 kPa, Gas | 0.05349
368.46 K, 4121 kPa, Gas | 0.05378
368.46 K, 4122 kPa, Gas | 0.05392
368.46 K, 4123 kPa, Gas | 0.05418
368.46 K, 4124 kPa, Gas | 0.0565
368.46 K, 4125 kPa, Gas | 0.0589
368.46 K, 4126 kPa, Gas | 0.06178
368.46 K, 4127 kPa, Gas | 0.06494
368.46 K, 4128 kPa, Gas | 0.06863
368.46 K, 4129 kPa, Gas | 0.07284
368.46 K, 4130 kPa, Gas | 0.07749
368.46 K, 4131 kPa, Gas | 0.08276
368.46 K, 4132 kPa, Gas | 0.08878
368.46 K, 4133 kPa, Gas | 0.09573
368.46 K, 4134 kPa, Gas | 0.1033
368.46 K, 4135 kPa, Gas | 0.1122
368.46 K, 4136 kPa, Gas | 0.1221
368.46 K, 4137 kPa, Gas | 0.1337
368.46 K, 4138 kPa, Gas | 0.1478
368.46 K, 4139 kPa, Gas | 0.1619
368.46 K, 4140 kPa, Gas | 0.1793
368.46 K, 4141 kPa, Gas | 0.2022
368.46 K, 4142 kPa, Gas | 0.214
368.46 K, 4143 kPa, Gas | 0.2272
368.46 K, 4144 kPa, Gas | 0.241
368.46 K, 4145 kPa, Liquid | 0.2612
368.46 K, 4146 kPa, Liquid | 0.2405
368.46 K, 4147 kPa, Liquid | 0.2228
368.46 K, 4148 kPa, Liquid | 0.2065
368.46 K, 4149 kPa, Liquid | 0.1933
368.46 K, 4150 kPa, Liquid | 0.1809
368.46 K, 4151 kPa, Liquid | 0.1745
368.46 K, 4152 kPa, Liquid | 0.1686
368.46 K, 4153 kPa, Liquid | 0.164
368.46 K, 4154 kPa, Liquid | 0.1581
368.46 K, 4155 kPa, Liquid | 0.1533
368.46 K, 4156 kPa, Liquid | 0.1489
368.46 K, 4157 kPa, Liquid | 0.1449
368.46 K, 4158 kPa, Liquid | 0.141
368.46 K, 4159 kPa, Liquid | 0.1373
368.46 K, 4160 kPa, Liquid | 0.1338
368.46 K, 4161 kPa, Liquid | 0.1305
368.46 K, 4162 kPa, Liquid | 0.1273
368.46 K, 4163 kPa, Liquid | 0.1243
368.46 K, 4164 kPa, Liquid | 0.1214
368.46 K, 4165 kPa, Liquid | 0.12
